# Reference: patent publication US20030216324A1, “Airway mucus secretion inhibitors” (priority 2000, published 2003)
# Key:
# [1] = tested on: augmentative mucus secretion in guinea pig trachea; experiment: Suppressive effect on augmentative secretion by antigen challenge (ovalbumin-sensitized guinea pig, mucus score by PAS-Alcian Blue); format: in vivo; conditions: OA-sensitized guinea pig; test drug 100 mg/kg oral; 5% OA inhaled 30 minutes after drug; trachea removed 10 minutes later
# Experimental: Suppressive Effect on Augmentative Secretion by Antigen Challenge
# Egg albumin (Ovalbumin:OA) (70 mg/kg) is administered and sensitized to guinea pig into the peritoneal cavity on the first experiment day and 8th day. The test drug (100 mg/kg) was oral administered to the sensitized guinea pig on 22nd experiment day. 5%OA was inhaled for 2 minutes 30 minutes after the test drug was administered, and the trachea was removed 10 minutes later. It was dyed with PAS-Alcian Blue, and the augmentative mucus secretion was evaluated according to the level of the decrease in mucus score.
# As a test drug, 2-[5-amino-6-oxo-2-phenyl-1,6-dihydro-1-pyrimidinyl]-N-[1-[[5-(t-butyl)-1,3,4-oxadiazole-2-yl]carbonyl]-2-methylpropyl]acetamide (Compound 34) was used.
# [2] = tested on: augmentative airway mucus secretion; conditions: airway inflammation model by ozone exposure (lesion similar to chronic bronchitis); cited from earlier work
SMILES,"mucus score (augmentative mucus secretion, PAS-Alcian Blue dye) [1]",augmentative airway mucus secretion [2]
"CC(C)C(NC(=O)Cn1c(-c2ccccc2)ncc(N)c1=O)C(=O)c1nnc(C(C)(C)C)o1 (centres unmarked) [Compound 34, 2-[5-amino-6-oxo-2-phenyl-1,6-dihydro-1-pyrimidinyl]-N-[1-[[5-(t-butyl)-1,3,4-oxadiazole-2-yl]carbonyl]-2-methylpropyl]acetamide]",intentionally suppressed,–
CC(C)(C)C(=O)Oc1ccc(S(=O)(=O)Nc2ccccc2C(=O)NCC(=O)O)cc1 [ONO-5046],–,suppress
